Reference: ChEMBL document CHEMBL1156945, “Discovery of a novel selective PPARgamma modulator from (-)-Cercosporamide derivatives” (Bioorg Med Chem Lett, 2010)
pEC50, pIC50, pKi: −log10 of the molar value. Activity calls are given as the source filed them. The calls are words filed in the database; no cut-off is given here.

These molecules were tested against T1, Peroxisome proliferator-activated receptor gamma (Homo sapiens, UniProt P37231). Conditions: not given.
T1 sequence (P37231 whole entry): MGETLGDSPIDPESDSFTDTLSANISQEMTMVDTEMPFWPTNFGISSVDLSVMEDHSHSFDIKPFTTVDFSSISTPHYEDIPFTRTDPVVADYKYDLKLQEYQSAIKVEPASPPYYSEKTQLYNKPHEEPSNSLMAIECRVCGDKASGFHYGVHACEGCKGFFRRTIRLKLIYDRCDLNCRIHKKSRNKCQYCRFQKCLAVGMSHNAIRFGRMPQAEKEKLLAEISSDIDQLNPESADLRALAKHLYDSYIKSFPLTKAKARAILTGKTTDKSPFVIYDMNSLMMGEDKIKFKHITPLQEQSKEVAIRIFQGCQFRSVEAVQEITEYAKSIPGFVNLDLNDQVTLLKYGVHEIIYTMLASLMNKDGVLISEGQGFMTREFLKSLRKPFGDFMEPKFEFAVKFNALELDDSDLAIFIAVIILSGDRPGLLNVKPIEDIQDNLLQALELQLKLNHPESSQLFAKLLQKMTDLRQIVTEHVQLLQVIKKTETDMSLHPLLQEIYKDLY

| SMILES | pEC50 |
| --- | --- |
| COC1Oc2cc(O)c3c(c2C(=O)N1C(=O)NCc1cccc(Cl)c1)OC1=CC(O)=C(C(C)=O)C(=O)[C@]13C (stereo partly drawn) | 5.17 |
| COC1Oc2cc(O)c3c(c2C(=O)N1C(=O)NCc1cc2ccccc2o1)OC1=CC(O)=C(C(C)=O)C(=O)[C@]13C (stereo partly drawn) | 5.64 |
| COC1Oc2cc(O)c3c(c2C(=O)N1C(=O)NCc1cccc([N+](=O)[O-])c1)OC1=CC(O)=C(C(C)=O)C(=O)[C@]13C (stereo partly drawn) | 5.62 |
| COC1Oc2cc(O)c3c(c2C(=O)N1C(=O)NCc1ccoc1)OC1=CC(O)=C(C(C)=O)C(=O)[C@]13C (stereo partly drawn) | 5.49 |
| COC1Oc2cc(O)c3c(c2C(=O)N1C(=O)NCc1ccc([N+](=O)[O-])cc1)OC1=CC(O)=C(C(C)=O)C(=O)[C@]13C (stereo partly drawn) | 5.22 |
| COc1cccc(CNC(=O)N2C(=O)c3c(cc(O)c4c3OC3=CC(O)=C(C(C)=O)C(=O)[C@]34C)OC2OC)c1 (stereo partly drawn) | 5.42 |
| COC1Oc2cc(O)c3c(c2C(=O)N1C(=O)NCc1cccc2ccccc12)OC1=CC(O)=C(C(C)=O)C(=O)[C@]13C (stereo partly drawn) | 6.74 |
| COC1Oc2cc(O)c3c(c2C(=O)N1C(=O)NCc1ccsc1)OC1=CC(O)=C(C(C)=O)C(=O)[C@]13C (stereo partly drawn) | 5.36 |
| COC1Oc2cc(O)c3c(c2C(=O)N1C(=O)NCc1ccccc1[N+](=O)[O-])OC1=CC(O)=C(C(C)=O)C(=O)[C@]13C (stereo partly drawn) | 5.80 |
| COC1Oc2cc(O)c3c(c2C(=O)N1C(=O)NCc1ccco1)OC1=CC(O)=C(C(C)=O)C(=O)[C@]13C (stereo partly drawn) | 6.25 |
| COC1Oc2cc(O)c3c(c2C(=O)N1C(=O)NCc1cccnc1)OC1=CC(O)=C(C(C)=O)C(=O)[C@]13C (stereo partly drawn) | 4.96 |
| COc1cc(O)c2c(c1C(=O)NCc1ccccc1)OC1=CC(O)=C(C(C)=O)C(=O)[C@]12C | 6.66 |
| COC1Oc2cc(O)c3c(c2C(=O)N1C(=O)NCc1cc2ccccc2s1)OC1=CC(O)=C(C(C)=O)C(=O)[C@]13C (stereo partly drawn) | 5.42 |
| COC1Oc2cc(O)c3c(c2C(=O)N1C(=O)NCc1ccccc1Cl)OC1=CC(O)=C(C(C)=O)C(=O)[C@]13C (stereo partly drawn) | 6.55 |
| COC1Oc2cc(O)c3c(c2C(=O)N1C(=O)NCc1cccs1)OC1=CC(O)=C(C(C)=O)C(=O)[C@]13C (stereo partly drawn) | 5.92 |
| COc1ccc(CNC(=O)N2C(=O)c3c(cc(O)c4c3OC3=CC(O)=C(C(C)=O)C(=O)[C@]34C)OC2OC)cc1 (stereo partly drawn) | 5.77 |
| COC1Oc2cc(O)c3c(c2C(=O)N1C(=O)NCc1ccc(Cl)cc1)OC1=CC(O)=C(C(C)=O)C(=O)[C@]13C (stereo partly drawn) | 6.11 |

Species: Mus musculus
Assay: Antihyperglycemic activity in KK/Ta mouse assessed as reduction in body weight at 0.01% in diet after 7 days relative to control
Type: functional
Parameters: scale not given: the % may be the effect or the level left
Conditions: not given

| SMILES | Activity [%] |
| --- | --- |
| CC(=O)C1=C(O)C=C2Oc3c4c(cc(O)c3[C@]2(C)C1=O)OC(C)(C)N(Cc1ccccc1)C4=O | 103 |
| CC(=O)C1=C(O)C=C2Oc3c4c(cc(O)c3[C@]2(C)C1=O)OC(C)(C)NC4=O | 102 |
| COc1cc(O)c2c(c1C(=O)NCc1ccccc1)OC1=CC(O)=C(C(C)=O)C(=O)[C@]12C | 101 |

The molecules below were run against T1, Peroxisome proliferator-activated receptor gamma (assay: Binding affinity to PPARgamma). Conditions: not given.

| SMILES | pKi |
| --- | --- |
| COC1Oc2cc(O)c3c(c2C(=O)N1C(=O)NCc1cccc2ccccc12)OC1=CC(O)=C(C(C)=O)C(=O)[C@]13C (stereo partly drawn) | 7.09 |

Species: Mus musculus
Assay: Antihyperglycemic activity in KK/Ta mouse assessed as reduction in plasma glucose level at 0.01% in diet relative to control
Type: functional
Parameters: scale not given: the % may be the effect or the level left
Conditions: not given

| SMILES | Activity [%] |
| --- | --- |
| CC(=O)C1=C(O)C=C2Oc3c4c(cc(O)c3[C@]2(C)C1=O)OC(C)(C)N(Cc1ccccc1)C4=O | 55 |
| CC(=O)C1=C(O)C=C2Oc3c4c(cc(O)c3[C@]2(C)C1=O)OC(C)(C)NC4=O | 56 |
| COc1cc(O)c2c(c1C(=O)NCc1ccccc1)OC1=CC(O)=C(C(C)=O)C(=O)[C@]12C | 69 |

Each molecule was assayed on Mus musculus (assay: Toxicity in db/db mouse assessed as heart weight administered at 0.1% in diet (Rvb=102+/-4.8 mg)). Conditions: in vivo, po.
Type: organism-based

| SMILES | Activity [mg] |
| --- | --- |
| COC1Oc2cc(O)c3c(c2C(=O)N1C(=O)NCc1cccc2ccccc12)OC1=CC(O)=C(C(C)=O)C(=O)[C@]13C (stereo partly drawn) | 103.8 |

Each molecule was assayed against T2, Peroxisome proliferator-activated receptor alpha (Homo sapiens) (UniProt Q07869) (assay: Agonist activity at PPARalpha by transactivation assay). Conditions: not given.
T2 sequence (whole entry): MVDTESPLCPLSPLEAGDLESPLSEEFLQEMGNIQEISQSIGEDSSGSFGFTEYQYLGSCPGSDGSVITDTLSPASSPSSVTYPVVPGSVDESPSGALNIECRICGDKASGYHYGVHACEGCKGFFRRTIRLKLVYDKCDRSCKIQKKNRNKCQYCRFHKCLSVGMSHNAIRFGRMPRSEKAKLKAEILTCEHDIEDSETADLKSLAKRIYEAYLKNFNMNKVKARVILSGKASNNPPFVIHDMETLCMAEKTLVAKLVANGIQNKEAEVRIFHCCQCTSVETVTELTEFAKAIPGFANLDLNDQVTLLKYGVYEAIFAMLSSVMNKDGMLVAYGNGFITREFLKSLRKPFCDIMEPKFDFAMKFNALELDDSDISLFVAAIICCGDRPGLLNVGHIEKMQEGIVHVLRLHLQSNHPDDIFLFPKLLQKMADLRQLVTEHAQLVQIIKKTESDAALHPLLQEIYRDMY
Type: functional

| SMILES | Activity |
| --- | --- |
| COC1Oc2cc(O)c3c(c2C(=O)N1C(=O)NCc1cccc2ccccc12)OC1=CC(O)=C(C(C)=O)C(=O)[C@]13C (stereo partly drawn) | inactive |

What follows are molecules tested against T3, Peroxisome proliferator-activated receptor delta (Homo sapiens) (UniProt Q03181) (assay: Agonist activity at PPARdelta by transactivation assay). Conditions: not given.
T3 sequence (whole entry): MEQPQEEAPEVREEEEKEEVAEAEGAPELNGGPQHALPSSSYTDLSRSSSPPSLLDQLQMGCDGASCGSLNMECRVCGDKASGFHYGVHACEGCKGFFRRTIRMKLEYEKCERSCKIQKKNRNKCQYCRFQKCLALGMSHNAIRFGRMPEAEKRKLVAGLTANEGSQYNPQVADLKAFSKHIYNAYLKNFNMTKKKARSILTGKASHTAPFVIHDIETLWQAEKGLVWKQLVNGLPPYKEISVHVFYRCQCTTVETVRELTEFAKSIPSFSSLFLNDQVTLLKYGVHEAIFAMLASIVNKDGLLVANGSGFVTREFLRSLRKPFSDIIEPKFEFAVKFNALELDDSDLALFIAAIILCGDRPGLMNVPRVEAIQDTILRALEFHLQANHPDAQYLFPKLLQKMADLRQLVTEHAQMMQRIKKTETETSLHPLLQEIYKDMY
Type: functional

| SMILES | Activity |
| --- | --- |
| COC1Oc2cc(O)c3c(c2C(=O)N1C(=O)NCc1cccc2ccccc12)OC1=CC(O)=C(C(C)=O)C(=O)[C@]13C (stereo partly drawn) | inactive |

Molecular target: T1, Peroxisome proliferator-activated receptor gamma
Conditions: not given
Remark: another data set of the same source

| SMILES | EC50 |
| --- | --- |
| COC1Oc2cc(O)c3c(c2C(=O)N1C(=O)NCc1ccccn1)OC1=CC(O)=C(C(C)=O)C(=O)[C@]13C (stereo partly drawn) | Not Active |

The molecules below were run on Mus musculus (assay: Toxicity in db/db mouse assessed as heart weight administered at 0.01% in diet (Rvb=102+/-4.8 mg)). Conditions: in vivo, po.
Type: organism-based

| SMILES | Activity [mg] |
| --- | --- |
| COC1Oc2cc(O)c3c(c2C(=O)N1C(=O)NCc1cccc2ccccc12)OC1=CC(O)=C(C(C)=O)C(=O)[C@]13C (stereo partly drawn) | 102.8 |

The molecules below were run against T1, Peroxisome proliferator-activated receptor gamma (assay: Inhibition of PPARgamma assessed as transcriptional activity). Conditions: not given.

| SMILES | pIC50 |
| --- | --- |
| COC1Oc2cc(O)c3c(c2C(=O)N1C(=O)NCc1ccco1)OC1=CC(O)=C(C(C)=O)C(=O)[C@]13C (stereo partly drawn) | 4.89 |

Species: Mus musculus
Assay: Antihyperglycemic activity in KK/Ta mouse assessed as reduction in food intake at 0.01% in diet after 7 days relative to control
Type: functional
Parameters: scale not given: the % may be the effect or the level left
Conditions: not given

| SMILES | Activity [%] |
| --- | --- |
| CC(=O)C1=C(O)C=C2Oc3c4c(cc(O)c3[C@]2(C)C1=O)OC(C)(C)N(Cc1ccccc1)C4=O | 74 |
| CC(=O)C1=C(O)C=C2Oc3c4c(cc(O)c3[C@]2(C)C1=O)OC(C)(C)NC4=O | 78 |
| COc1cc(O)c2c(c1C(=O)NCc1ccccc1)OC1=CC(O)=C(C(C)=O)C(=O)[C@]12C | 100 |
